Experimental data from US9949981B2, “Compositions and methods for treating proliferation disorders” (Arqule, Inc., priority 2014, dated 2018).
Where two headings read alike, the source gives them in different places.

Assays:
AKT1 = AKT1 (Homo sapiens, UniProt P31749); assay: Inactive AKT Alpha Screen Assay
[1] = test system: pAKT in KU-19-19 (E17K) mutant bladder cancer cells; assay: pAKT in KU-19-19 cells, two hour treatment; conditions: normal medium, 2 hours, FIGS. 17 and 18
[2] = test system: pPRAS40 in KU-19-19 (E17K) mutant bladder cancer cells; assay: pPRAS40 in KU-19-19 cells, two hour treatment; conditions: normal medium, 2 hours, FIGS. 17 and 18
[3] = test system: Proteus single cell clones (A6B AKT1 p.E17K positive and E8F9A mutation negative cells); assay: Viability of Proteus single cell clones; type: cell-based, human; conditions: presence or absence of serum; 24 hours serum starvation; 72 hours; FIGS. 5A and 5B
[4] = test system: S6 phosphorylation in Proteus single cell clones; conditions: F6B mutation positive and H4A mutation negative clones; with or without serum; FIGS. 16A and 16B
[5] = test system: AKT1 phosphorylation in Proteus single cell clones; conditions: FIG. 15

Sequence of AKT1 (P31749 whole entry): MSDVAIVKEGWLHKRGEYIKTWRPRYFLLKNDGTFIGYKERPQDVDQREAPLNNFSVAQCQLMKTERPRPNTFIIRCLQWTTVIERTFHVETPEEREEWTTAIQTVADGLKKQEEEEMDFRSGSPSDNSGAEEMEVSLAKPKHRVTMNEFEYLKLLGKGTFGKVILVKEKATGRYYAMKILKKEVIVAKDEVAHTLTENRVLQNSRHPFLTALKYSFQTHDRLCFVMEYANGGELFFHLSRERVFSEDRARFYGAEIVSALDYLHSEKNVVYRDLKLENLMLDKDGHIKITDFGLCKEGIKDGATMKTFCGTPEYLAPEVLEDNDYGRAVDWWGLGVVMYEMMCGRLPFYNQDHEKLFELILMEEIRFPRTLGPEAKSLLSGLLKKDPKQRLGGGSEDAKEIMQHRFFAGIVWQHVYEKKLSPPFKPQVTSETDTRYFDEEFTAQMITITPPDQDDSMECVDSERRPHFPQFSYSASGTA

SMILES: Nc1ncccc1-c1nc2ccc(-c3cccc(N4CCOCC4)c3)nc2n1-c1ccc(C2(N)CCC2)cc1 [Compound 2, 3-(3-(4-(1-aminocyclobutyl)phenyl)-5-(3-morpholinophenyl)-3H-imidazo[4,5-b]pyridin-2-yl)pyridin-2-amine]
- IC50 (AKT1): 2.2 nM

SMILES: NC1(c2ccc(-c3nc4ccn5c(=O)[nH]nc5c4cc3-c3ccccc3)cc2)CCC1 [MK-2206, reference compound]
- pAKT [1]: inhibit
- pPRAS40 [2]: inhibit

SMILES: CO[C@H]1C[C@@H]2CC[C@@H](C)[C@@](O)(O2)C(=O)C(=O)N2CCCC[C@H]2C(=O)O[C@H]([C@H](C)C[C@@H]2CC[C@@H](OCCO)[C@H](OC)C2)CC(=O)[C@H](C)/C=C(\C)[C@@H](O)[C@@H](OC)C(=O)[C@H](C)C[C@H](C)/C=C/C=C/C=C/1C [everolimus]
- viability of Proteus single cell clones [3]: mutation positive cells are more sensitive than control cells
- pS6 levels [4]: greatly decreases pS6 levels
- pAKT/AKT ratio ([5]; F6B AKT1 p.E17K mutant cells in serum free conditions): decreases the pAKT/AKT ratio
- pAKT/AKT ratio ([5]; mutant negative cells (H4A) or mutant cells gown in serum free conditions): has no effect or increases the ratio
